# In patent publication US9862730B2, “Imidazothiadiazole derivatives as protease activated receptor 4 (PAR4) inhibitors for treating platelet aggregation” (BRISTOL-MYERS SQUIBB COMPANY, priority 2012, dated 2018):
# Molecular target: PAR4 (Homo sapiens (Human), UniProt Q96RI0)
# Assay: FLIPR assay in PAR4-expressing HEK293 cells (PAR4 antagonist activity, calcium mobilization)
# Format: cell-based
# Conditions: FLIPR assay as described in Example A
# Source text: The FLIPR assay is an exemplary in vitro assay for measuring the activity of the PAR4 antagonists of the present invention. In this assay, intracellular calcium mobilization is induced in PAR4 expressing cells by a PAR4 agonist and calcium mobilization is monitored. See, e.g., Example A.
# HEK293 cells stably expressing PAR4 were generated by a standard method of transfection of human […] cDNA expression vector or by RAGE technology from Athersys Inc. (Cleveland, Ohio) and selected based on PAR4 protein expression of mRNA expression. […] These cells express endogenous PAR1 and can elicit calcium signal upon stimulation with PAR1 agonist peptide.
# Counter screens for agonist activity and PAR1 antagonist activity were also performed. Briefly, HEK293 EBNA PAR4 clone 20664.1J cells were plated 24 hrs. prior to experiment in 384 well, Poly-D-Lysine coated, black, clear bottom plates (Greiner Bio-One, Monroe, N.C.). Cells were plated at 20,000 cells/well in 20 μl growth medium and incubated at 37° C. with 5% CO2 overnight. At time of assay, media was replaced with 40 μl 1× Hank's Buffered Saline Solution (HBSS) (with 10 mM HEPES) and 20 μl test compound also diluted in 1×HBSS buffer was added at various concentrations and 0.67% DMSO final concentration on the FDSS for agonist measurement. The cells were then incubated for 30 minutes at room temperature followed by addition of 20 μl of agonist peptide for antagonist measurement on the FDSS.
# As indicated above, the FLIPR assay, an in vitro assay, measures the PAR4 antagonist activity of compounds tested as described in Example A.
# PAR4, sequence (Q96RI0 18-385): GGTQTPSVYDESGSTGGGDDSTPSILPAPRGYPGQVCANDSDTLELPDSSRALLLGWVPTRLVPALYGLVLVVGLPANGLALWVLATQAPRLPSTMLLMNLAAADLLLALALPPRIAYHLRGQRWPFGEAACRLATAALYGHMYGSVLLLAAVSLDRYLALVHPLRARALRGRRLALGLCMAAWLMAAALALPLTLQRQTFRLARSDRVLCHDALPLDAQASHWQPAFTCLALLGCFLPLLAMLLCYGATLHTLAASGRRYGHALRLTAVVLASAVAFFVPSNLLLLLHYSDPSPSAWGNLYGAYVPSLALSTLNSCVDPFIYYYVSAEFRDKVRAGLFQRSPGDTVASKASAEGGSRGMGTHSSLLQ
row,Compound,IC50 [nM]
1,CSc1nn2cc(-c3cc4cccc(OC(F)(F)F)c4o3)nc2s1 [Example 70],400
2,CCc1nn2cc(-c3nc4ccc(OCC5CC5)cc4o3)nc2s1 [Example 74],681
3,CCc1nn2cc(-c3nc4ccc(OC5CCC5)cc4o3)nc2s1 [Example 75],294
4,CCc1nn2cc(-c3nc4ccc(OCC5CCCCC5)cc4o3)nc2s1 [Example 76],3400
5,CCc1nn2cc(-c3nc4ccc(OCCC(C)C)cc4o3)nc2s1 [Example 77],1370
6,CCc1nn2cc(-c3nc4ccc(OCCCc5ccccc5)cc4o3)nc2s1 [Example 78],576
7,CCCCOc1ccc2nc(-c3cn4nc(CC)sc4n3)oc2c1 [Example 79],801
8,CCc1nn2cc(-c3nc4ccc(OC5CCCCC5)cc4o3)nc2s1 [Example 80],695
9,CCc1nn2cc(-c3nc4ccc(OCc5ccccc5Cl)cc4o3)nc2s1 [Example 81],507
10,CCc1nn2cc(-c3nc4ccc(OCc5cccc(Cl)c5)cc4o3)nc2s1 [Example 82],66
11,CCc1nn2cc(-c3nc4ccc(OCc5ccc(Cl)cc5)cc4o3)nc2s1 [Example 83],1010
12,CCc1nn2cc(-c3nc4ccc(OCc5ccc(OC)cc5)cc4o3)nc2s1 [Example 84],101
13,CCc1nn2cc(-c3nc4ccc(OCC(C)C)cc4o3)nc2s1 [Example 85],392
14,CCc1nn2cc(-c3nc4ccc(OCc5ccncc5)cc4o3)nc2s1 [Example 86],1210
15,CCc1nn2cc(-c3nc4ccc(OC(C)C)cc4o3)nc2s1 [Example 87],450
16,COc1nn2cc(-c3cc4cccc(C)c4o3)nc2s1 [Example 89],28.2
17,COc1ccc2oc(-c3cn4nc(OC)sc4n3)cc2c1 [Example 93],222
18,COc1nn2cc(-c3cc4cc(OC(F)(F)F)ccc4o3)nc2s1 [Example 98],187
19,COc1nn2cc(-c3cc4cc([N+](=O)[O-])ccc4o3)nc2s1 [Example 100],71.4
20,COc1nn2cc(-c3cc4ccc(C)c(C)c4o3)nc2s1 [Example 102],542
21,CSc1nn2cc(-c3cc4ccc(C)c(C)c4o3)nc2s1 [Example 107],339
22,COc1nn2cc(-c3cc4ccc(O)cc4o3)nc2s1 [Example 108],461
23,"CSc1nn2cc(-c3nc4ccccc4o3)nc2s1 [Example 110, 2-(2-(Methylthio)imidazo[2,1-b][1,3,4]thiadiazol-6-yl)benzo[d]oxazole]",213
24,"COc1nn2cc(-c3nc4ccccc4o3)nc2s1 [Example 111, 2-(2-Methoxyimidazo[2,1-b][1,3,4]thiadiazol-6-yl)benzo[d]oxazole]",140

row,Compound,IC50 [nM]
1,"Cc1ccc2oc(-c3cn4nc(C)sc4n3)nc2c1 [Example 112, 5-Methyl-2-(2-methylimidazo[2,1-b][1,3,4]thiadiazol-6-yl)benzo[d]oxazole]",382
2,"CSc1nn2cc(-c3nc4ccc(OCCN5CCCC5)cc4o3)nc2s1 [Example 114, 2-(2-(Methylthio)imidazo[2,1-b][1,3,4]thiadiazol-6-yl)-6-(2-(pyrrolidin-1-yl)ethoxy)benzo[d]oxazole]",206
3,"CSc1nn2cc(-c3nc4ccc(OCc5ccccc5)cc4o3)nc2s1 [Example 115, 6-(Benzyloxy)-2-(2-(methylthio)imidazo[2,1-b][1,3,4]thiadiazol-6-yl)benzo[d]oxazole]",74.9
4,"CSc1nn2cc(-c3nc4ccc(OCc5ccccn5)cc4o3)nc2s1 [Example 117, 2-(2-(Methylthio)imidazo[2,1-b][1,3,4]thiadiazol-6-yl)-6-(pyridin-2-ylmethoxy)benzo[d]oxazole]",654
5,"CSc1nn2cc(-c3nc4ccc(OCCF)cc4o3)nc2s1 [Example 118, 6-(2-Fluoroethoxy)-2-(2-(methylthio)imidazo[2,1-b][1,3,4]thiadiazol-6-yl)benzo[d]oxazole]",191
6,"CSc1nn2cc(-c3nc4c(N)cccc4o3)nc2s1 [Example 120, 2-(2-(Methylthio)imidazo[2,1-b][1,3,4]thiadiazol-6-yl)benzo[d]oxazol-4-amine]",48.9
7,"Cc1cccc2oc(-c3cn4nc(C(C)(F)F)sc4n3)nc12 [Example 122, 2-(2-(1,1-Difluoroethyl)imidazo[2,1-b][1,3,4]thiadiazol-6-yl)-4-methylbenzo[d]oxazole]",509
8,"CC(F)(F)c1nn2cc(-c3nc4c([N+](=O)[O-])cccc4o3)nc2s1 [Example 123, 2-(2-(1,1-Difluoroethyl)imidazo[2,1-b][1,3,4]thiadiazol-6-yl)-4-nitrobenzo[d]oxazole]",1120
9,"CC(F)(F)c1nn2cc(-c3nc4c(N)cccc4o3)nc2s1 [Example 124, 2-(2-(1,1-Difluoroethyl)imidazo[2,1-b][1,3,4]thiadiazol-6-yl)-4-aminobenzo[d]oxazole]",3480
10,CSc1nn2cc(-c3nc4cc(Cl)ccc4o3)nc2s1 [Example 125],206
11,COc1nn2cc(-c3nc4cc(Cl)ccc4o3)nc2s1 [Example 130],41.3
12,CSc1nn2cc(-c3nc4cc(C(C)(C)C)ccc4o3)nc2s1 [Example 132],87.2
13,COc1nn2cc(-c3nc4cc(C(C)(C)C)ccc4o3)nc2s1 [Example 134],321
14,COc1nn2cc(-c3nc4cc(C)c(C)cc4o3)nc2s1 [Example 136],38.9
15,COc1nn2cc(-c3nc4cc(F)c(F)cc4o3)nc2s1 [Example 138],470
16,CSc1nn2cc(-c3nc4cc(OC(F)(F)F)ccc4o3)nc2s1 [Example 139],80.4
17,COc1nn2cc(-c3nc4cc(OC(F)(F)F)ccc4o3)nc2s1 [Example 140],68.9
18,COc1ccc2oc(-c3cn4nc(SC)sc4n3)nc2c1 [Example 141],41
19,CSc1nn2cc(-c3nc4cccc(F)c4o3)nc2s1 [Example 143],48.8
20,COc1nn2cc(-c3nc4cccc(F)c4o3)nc2s1 [Example 144],91.3
21,CSc1nn2cc(-c3nc4ccc(OCc5cccnc5)cc4o3)nc2s1 [Example 145],286
22,CSc1nn2cc(-c3nc4ccc(OCc5ccncc5)cc4o3)nc2s1 [Example 146],911
23,CSc1nn2cc(-c3nc4c(O)cccc4o3)nc2s1 [Example 147],78.3
24,CSc1nn2cc(-c3nc4c(OCc5ccccc5)cccc4o3)nc2s1 [Example 148],224

# Results, then the molecule that gave them:
row,IC50 [nM],Compound
1,1.22,COc1ccc2cc(-c3cn4nc(OC)sc4n3)oc2c1 [Example 71]
2,4.7,COc1nn2cc(-c3cc4ccc(C)cc4o3)nc2s1 [Example 90]
3,19.1,COc1nn2cc(-c3cc4cc(Cl)ccc4o3)nc2s1 [Example 91]
4,13,CCc1cccc2cc(-c3cn4nc(OC)sc4n3)oc12 [Example 92]
5,3.58,COc1nn2cc(-c3cc4ccc(Cl)cc4o3)nc2s1 [Example 94]
6,6.89,COc1nn2cc(-c3cc4cc(C)ccc4o3)nc2s1 [Example 95]
7,7.92,COc1nn2cc(-c3cc4ccc(F)cc4o3)nc2s1 [Example 96]
8,3.48,COc1nn2cc(-c3cc4cc(F)ccc4o3)nc2s1 [Example 97]
9,10.7,COc1nn2cc(-c3cc4cccc(C(C)C)c4o3)nc2s1 [Example 101]
10,10.7,COc1nn2cc(-c3cc4c(OC)ccc(OC)c4o3)nc2s1 [Example 103]
11,26.2,COc1nn2cc(-c3cc4ccc(OCc5ccccc5)cc4o3)nc2s1 [Example 104]
12,11.4,COc1ccc(OC)c2oc(-c3cn4nc(SC)sc4n3)cc12 [Example 105]
13,13.9,COc1ccc2c(C)c(-c3cn4nc(SC)sc4n3)oc2c1 [Example 106]
14,3.1,COc1nn2cc(-c3cc4c(Cl)cccc4o3)nc2s1 [Example 109]
15,15.2,CSc1nn2cc(-c3nc4cc(C)ccc4o3)nc2s1 [Example 113]
16,6.63,"COc1ccc2nc(-c3cn4nc(SC)sc4n3)oc2c1 [Example 116, 6-Methoxy-2-(2-(methylthio)imidazo[2,1-b][1,3,4]thiadiazol-6-yl)benzo[d]oxazole]"
17,10.6,"COc1cc(OCc2ccccc2)c2nc(-c3cn4nc(SC)sc4n3)oc2c1 [Example 119, 4-(Benzyloxy)-6-methoxy-2-(2-(methylthio)imidazo[2,1-b][1,3,4]thiadiazol-6-yl)benzo[d]oxazole]"
18,13,"COc1cc(OCc2ccccc2)c2nc(-c3cn4nc(OC)sc4n3)oc2c1 [Example 121, 4-(Benzyloxy)-6-methoxy-2-(2-methoxyimidazo[2,1-b][1,3,4]thiadiazol-6-yl)benzo[d]oxazole]"
19,10.4,CSc1nn2cc(-c3nc4cc(F)ccc4o3)nc2s1 [Example 126]
20,27.9,COc1nn2cc(-c3nc4cc(C)ccc4o3)nc2s1 [Example 127]
21,17.1,CSc1nn2cc(-c3nc4c(C)cccc4o3)nc2s1 [Example 128]
22,19.7,CSc1nn2cc(-c3nc4cc(C)c(C)cc4o3)nc2s1 [Example 133]
23,23.9,CSc1nn2cc(-c3nc4cc(F)c(F)cc4o3)nc2s1 [Example 137]
24,27.8,COc1ccc2oc(-c3cn4nc(OC)sc4n3)nc2c1 [Example 142]
